Among the data in patent publication US9957263B2, “Bromodomain inhibitors” (AbbVie Inc., priority 2013, dated 2018) are Ki values, retold here.

Usually pKi stands for the Ki on a negative log10 scale, so that one unit is a factor of ten.

pKi: −log10 of the molar value.

The target in test [1] is BRD4 (BDI_K57-E168) (Homo sapiens (Human), UniProt O60885). Put plainly: TR-FRET bromodomain binding assay, BRD4 first bromodomain. The conditions noted are these: His-tagged BD1, Alexa647-labeled probe 100 nM. As for the experimental part: (§1) A time-resolved fluorescence resonance energy transfer (TR-FRET) assay was used to determine the affinities of compounds of the Examples listed in Table 1 for each bromodomain of BRD4. His-tagged first (BD1: amino acids K57-E168) and second (BD2: amino acids E352-E168) bromodomains of BRD4 were expressed and purified. An Alexa647-labeled BET-inhibitor was used as the fluorescent probe in the assay.
(§2) Compound dilution series were prepared in DMSO via a 3-fold serial dilution from 2.5 mM to 42 nM. Compounds were then diluted 6:100 in assay buffer (20 mM Sodium Phosphate, pH 6.0, 50 mM NaCl, 1 mM Ethylenediaminetetraacetic acid disodium salt dihydrate, 0.01% Triton X-100, 1 mM DL-Dithiothreitol) to yield 3× working solutions. Six microliters (μL) of the working solution was then transferred to white, low-volume assay plates (Costar #3673). A 1.5× assay mixture containing His-tagged bromodomain, Europium-conjugated anti-His antibody (Invitrogen PV5596) and the Alexa-647-conjugated probe molecule was also prepared. Twelve μL of this solution were added to the assay plate to reach a final volume of 18 μL. The final concentration of 1× assay buffer contains 2% DMSO, 50 μM-0.85 nM compound, 8 nM His-tagged bromodomain, 1 nM Europium-conjugated anti-His-tag antibody and 100 nM or 30 nM probe (for BDI or BDII, respectively). After a one-hour incubation at room temperature, TR-FRET ratios were determined using an Envision multilabel plate reader (Ex 340, Em […]).
(§3) TR-FRET data were normalized to the means of 24 no-compound controls (“high”) and 8 controls containing 1 μM un-labeled probe (“low”). Percent inhibition was plotted as a function of compound concentration and the data were fit with the 4 parameter logistic equation to obtain IC50s. Inhibition constants (Ki) were calculated from the IC50s, probe Kd and probe concentration. Typical Z′ values were between 0.65 and 0.75. The minimum significant ratio was determined to evaluate assay reproducibility (Eastwood et al., (2006) J Biomol Screen, 11: 253-261). The MSR was determined to be 2.03 for BDI and 1.93 for BDII, and a moving MSR (last six run MSR overtime) for both BDI and BDII was typically <3.
(Time-resolved FRET reads energy transfer from a long-lived donor to a nearby acceptor.)

Test [2] concerns the target BRD4 (BDII_E352-M457) (Homo sapiens (Human), UniProt O60885). Kind of test: TR-FRET bromodomain binding assay, BRD4 second bromodomain. The conditions noted are these: His-tagged BD2, Alexa647-labeled probe 30 nM. The protocol:
as §1, §2, §3

For `Cn1cc(-c2cc(S(C)(=O)=O)ccc2Oc2cccc(C(=O)N3CCN(CCO)CC3)c2)c2cc[nH]c2c1=O` [Example 26, 4-[2-(3-{[4-(2-hydroxyethyl)piperazin-1-yl]carbonyl}phenoxy)-5-(methylsulfonyl)phenyl]-6-methyl-1,6-dihydro-7H-pyrrolo[2,3-c]pyridin-7-one], the pKi in test [1] is 7.57; in test [2], 7.82.
Take `Cn1cc(-c2cc(S(C)(=O)=O)ccc2Oc2cccc(C(=O)NCCCN3CCCC3=O)c2)c2cc[nH]c2c1=O` [Example 27, 3-[2-(6-methyl-7-oxo-6,7-dihydro-1H-pyrrolo[2,3-c]pyridin-4-yl)-4-(methylsulfonyl)phenoxy]-N-[3-(2-oxopyrrolidin-1-yl)propyl]benzamide]: the pKi in test [1] was 7.59; in test [2], 7.96.
The matching figures for `Cn1cc(-c2cc(S(C)(=O)=O)ccc2Oc2cccc(C(=O)N3CCN(C4CCCC4)CC3)c2)c2cc[nH]c2c1=O` [Example 28, 4-[2-{3-[(4-cyclopentylpiperazin-1-yl)carbonyl]phenoxy}-5-(methylsulfonyl)phenyl]-6-methyl-1,6-dihydro-7H-pyrrolo[2,3-c]pyridin-7-one]: 7.89 and 7.96.
`CN(C)CCN1CCN(C(=O)c2cccc(Oc3ccc(S(C)(=O)=O)cc3-c3cn(C)c(=O)c4[nH]ccc34)c2)CC1` [Example 29, 4-{2-[3-({4-[2-(dimethylamino)ethyl]piperazin-1-yl}carbonyl)phenoxy]-5-(methylsulfonyl)phenyl}-6-methyl-1,6-dihydro-7H-pyrrolo[2,3-c]pyridin-7-one]: the pKi in test [1] was 7.72; in test [2], 8.04.
The matching figures for `CC(=O)N1CCN(C(=O)c2cccc(Oc3ccc(S(C)(=O)=O)cc3-c3cn(C)c(=O)c4[nH]ccc34)c2)CC1` [Example 30, 4-[2-{3-[(4-acetylpiperazin-1-yl)carbonyl]phenoxy}-5-(methylsulfonyl)phenyl]-6-methyl-1,6-dihydro-7H-pyrrolo[2,3-c]pyridin-7-one]: 7.55 and 7.77.
The matching figures for `Cn1cc(-c2cc(S(C)(=O)=O)ccc2Oc2cccc(C(=O)N3CCC(C(F)(F)F)CC3)c2)c2cc[nH]c2c1=O` [Example 31, 6-methyl-4-[5-(methylsulfonyl)-2-(3-{[4-(trifluoromethyl)piperidin-1-yl]carbonyl}phenoxy)phenyl]-1,6-dihydro-7H-pyrrolo[2,3-c]pyridin-7-one]: 7.68 and 7.96.
The matching figures for `CN(CC#N)C(=O)c1cccc(Oc2ccc(S(C)(=O)=O)cc2-c2cn(C)c(=O)c3[nH]ccc23)c1` [Example 32, N-(cyanomethyl)-N-methyl-3-[2-(6-methyl-7-oxo-6,7-dihydro-1H-pyrrolo[2,3-c]pyridin-4-yl)-4-(methylsulfonyl)phenoxy]benzamide]: 7.68 and 8.00.
`CN(C)CCNC(=O)c1cccc(Oc2ccc(S(C)(=O)=O)cc2-c2cn(C)c(=O)c3[nH]ccc23)c1` [Example 33, N-[2-(dimethylamino)ethyl]-3-[2-(6-methyl-7-oxo-6,7-dihydro-1H-pyrrolo[2,3-c]pyridin-4-yl)-4-(methylsulfonyl)phenoxy]benzamide]: the pKi in test [1] is 8.09; in test [2], 8.51.
Consider `Cn1cc(-c2cc(S(C)(=O)=O)ccc2Oc2cccc(C(=O)NC[C@H]3CCCO3)c2)c2cc[nH]c2c1=O` [Example 34, 3-[2-(6-methyl-7-oxo-6,7-dihydro-1H-pyrrolo[2,3-c]pyridin-4-yl)-4-(methylsulfonyl)phenoxy]-N-[(2R)-tetrahydrofuran-2-ylmethyl]benzamide], for which the negative logarithm of the Ki (pKi) in test [1] is 7.82; in test [2], 8.44.
For `Cn1cc(-c2cc(S(C)(=O)=O)ccc2Oc2cccc(C(=O)NCCN3CCCC3)c2)c2cc[nH]c2c1=O` [Example 35, 3-[2-(6-methyl-7-oxo-6,7-dihydro-1H-pyrrolo[2,3-c]pyridin-4-yl)-4-(methylsulfonyl)phenoxy]-N-[2-(pyrrolidin-1-yl)ethyl]benzamide] the same measures were 8.51 and 8.72.
The matching figures for `Cn1cc(-c2cc(S(C)(=O)=O)ccc2Oc2cccc(C(=O)NCc3cc(F)cc(F)c3)c2)c2cc[nH]c2c1=O` [Example 36, N-(3,5-difluorobenzyl)-3-[2-(6-methyl-7-oxo-6,7-dihydro-1H-pyrrolo[2,3-c]pyridin-4-yl)-4-(methylsulfonyl)phenoxy]benzamide]: 7.85 and 8.24.
Consider `Cn1cc(-c2cc(S(C)(=O)=O)ccc2Oc2cccc(C(=O)NCc3ccc(F)cc3F)c2)c2cc[nH]c2c1=O` [Example 37, N-(2,4-difluorobenzyl)-3-[2-(6-methyl-7-oxo-6,7-dihydro-1H-pyrrolo[2,3-c]pyridin-4-yl)-4-(methylsulfonyl)phenoxy]benzamide], for which the negative logarithm of the Ki (pKi) was 7.74 in test [1] and 8.22 in test [2].
For `Cn1cc(-c2cc(S(C)(=O)=O)ccc2Oc2cccc(NS(=O)(=O)Cc3ccccc3)c2)c2cc[nH]c2c1=O` [Example 38, N-{3-[2-(6-methyl-7-oxo-6,7-dihydro-1H-pyrrolo[2,3-c]pyridin-4-yl)-4-(methylsulfonyl)phenoxy]phenyl}-1-phenylmethanesulfonamide] the same measures were 8.29 and 8.72.
The matching figures for `COc1ccc(S(=O)(=O)Nc2cccc(Oc3ccc(S(C)(=O)=O)cc3-c3cn(C)c(=O)c4[nH]ccc34)c2)cc1` [Example 39, 4-methoxy-N-{3-[2-(6-methyl-7-oxo-6,7-dihydro-1H-pyrrolo[2,3-c]pyridin-4-yl)-4-(methylsulfonyl)phenoxy]phenyl}benzenesulfonamide]: 8.34 and 8.68.
The matching figures for `Cn1cc(-c2cc(S(C)(=O)=O)ccc2Oc2cccc(NS(=O)(=O)c3cccc(F)c3)c2)c2cc[nH]c2c1=O` [Example 40, 3-fluoro-N-{3-[2-(6-methyl-7-oxo-6,7-dihydro-1H-pyrrolo[2,3-c]pyridin-4-yl)-4-(methylsulfonyl)phenoxy]phenyl}benzenesulfonamide]: 8.27 and 8.70.
Take `Cn1cc(-c2cc(S(C)(=O)=O)ccc2Oc2cccc(NS(=O)(=O)c3ccc(F)cc3)c2)c2cc[nH]c2c1=O` [Example 41, 4-fluoro-N-{3-[2-(6-methyl-7-oxo-6,7-dihydro-1H-pyrrolo[2,3-c]pyridin-4-yl)-4-(methylsulfonyl)phenoxy]phenyl}benzenesulfonamide]: the pKi in test [1] is 7.96; in test [2], 8.29.
Take `COc1cccc(S(=O)(=O)Nc2cccc(Oc3ccc(S(C)(=O)=O)cc3-c3cn(C)c(=O)c4[nH]ccc34)c2)c1` [Example 42, 3-methoxy-N-{3-[2-(6-methyl-7-oxo-6,7-dihydro-1H-pyrrolo[2,3-c]pyridin-4-yl)-4-(methylsulfonyl)phenoxy]phenyl}benzenesulfonamide]: the pKi is 8.04 in test [1] and 8.46 in test [2].
Turning to `Cn1cc(-c2cc(S(C)(=O)=O)ccc2Oc2cccc(NS(=O)(=O)c3ccc([N+](=O)[O-])cc3)c2)c2cc[nH]c2c1=O` [Example 43, N-{3-[2-(6-methyl-7-oxo-6,7-dihydro-1H-pyrrolo[2,3-c]pyridin-4-yl)-4-(methylsulfonyl)phenoxy]phenyl}-4-nitrobenzenesulfonamide], the pKi in test [1] is 8.30; in test [2], 8.52.
For `CC(=O)c1ccc(S(=O)(=O)Nc2cccc(Oc3ccc(S(C)(=O)=O)cc3-c3cn(C)c(=O)c4[nH]ccc34)c2)cc1` [Example 44, 4-acetyl-N-{3-[2-(6-methyl-7-oxo-6,7-dihydro-1H-pyrrolo[2,3-c]pyridin-4-yl)-4-(methylsulfonyl)phenoxy]phenyl}benzenesulfonamide] the same measures were 8.31 and 8.68.
The matching figures for `CN(C)c1cccc2c(S(=O)(=O)Nc3cccc(Oc4ccc(S(C)(=O)=O)cc4-c4cn(C)c(=O)c5[nH]ccc45)c3)cccc12` [Example 45, 5-(dimethylamino)-N-{3-[2-(6-methyl-7-oxo-6,7-dihydro-1H-pyrrolo[2,3-c]pyridin-4-yl)-4-(methylsulfonyl)phenoxy]phenyl}naphthalene-1-sulfonamide]: 7.80 and 8.48.
For `CC(C)c1ccc(S(=O)(=O)Nc2cccc(Oc3ccc(S(C)(=O)=O)cc3-c3cn(C)c(=O)c4[nH]ccc34)c2)cc1` [Example 46, N-{3-[2-(6-methyl-7-oxo-6,7-dihydro-1H-pyrrolo[2,3-c]pyridin-4-yl)-4-(methylsulfonyl)phenoxy]phenyl}-4-(propan-2-yl)benzenesulfonamide] the same measures were 8.00 and 8.74.
